What was measured:
[1] = biological target: human HAQ isoform of STING (Homo sapiens (Human), UniProt Q86WV6, G230A/H232R/R293Q/R71H); experiment: THP-1 STING Lucia ISG reporter cell line assay; assay type: cell-based; details: 24 h incubation, luminescence, normalized to ML RR-S2 CDA 40 μM; read-out: EC50 THP-I STING Lucia ISG cells
Procedure: (§1) THP-1 STING Lucia ISG cells (InvivoGen #thpl-isg) were cultured in RPMI-1640 containing 2 mM L-glutamine, 25 mM HEPES, 100 μg/mL Normocin (InvivoGen) and 10% heat-inactivated FBS. Cells were seeded at a density of 7×10^5 cells/mL, maintained at 37° C./5% CO2, and passaged every 3-4 days. Selection pressure was maintained by the addition of 100 μg/mL Zeocin every second passage.
(§2) Assay conditions: cells were harvested and resuspended at a concentration of 5×10^5 cells/mL in fresh growth media. Of this cell preparation 20 μL per well was dispensed into 384 well cell culture plates (Greiner, #781098X) and incubated at 37° C./5% CO2 for 2 hours.
(§3) Concentration Response Curves (commonly 11 doses) were prepared by 2.5 fold serial dilution starting from 10 mM compound stock solution in DMSO. Compound dilutions were transferred into the cell culture plates using a pintool (0.1 μL transfer), control wells were matched for DMSO. Positive control wells received ML RR-S2 CDA (Med Chem Express HY12885B) in 5 μL of media to a final concentration of 40 μM. All other wells received additional 5 μL of media only to equalize volume. The plates were incubated for 24 h at 37° C./5% CO2.
(§4) For the detection step, QUANTI-Luc (InvivoGen #rep-qlc1) was prepared according to manufacturer's instruction and 10 μL were added per well to the culture plates. Plates were shaken for ten seconds on an orbital shaker and left in the dark at room temperature for two minutes, before luminescence was read on a Perkin Elmer Envision plate reader.
(§5) Data analysis: Luminescence raw data was normalized % activity relative to the signal of the positive control wells and negative control wells which were not treated with compound. The following formula was used to calculate normalized % activity from raw signals: % activity=(sample−negative)/(positive−negative)
(§6) The THP-1 STING Lucia ISG cell EC50 provides an assessment of activity at the human HAQ isoform of STING. For assessing compound activity against the WT human STING isoform, an equivalent method was conducted where the cells used were THP-1-Dual KI-hSTING-R232 (InvivoGen #thpd-r232).

human STING (WT) [2] = biological target: T1, human STING (WT) (Homo sapiens (Human), UniProt Q86WV6, H232R); experiment: Differential scanning fluorimetry (DSF), huSTING (WT); assay type: binding; details: compound 100 μM, 2 μM protein, Tm with ligand minus Tm of protein alone (1% DMSO)
T1 sequence (Q86WV6 149-345 H232R): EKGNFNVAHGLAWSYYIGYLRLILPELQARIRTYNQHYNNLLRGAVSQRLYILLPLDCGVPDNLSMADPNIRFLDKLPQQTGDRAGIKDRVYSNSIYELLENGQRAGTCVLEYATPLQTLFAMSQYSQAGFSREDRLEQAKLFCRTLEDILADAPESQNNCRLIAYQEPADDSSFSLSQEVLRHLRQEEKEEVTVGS
Procedure: (§7) Data were analyzed using “Meltdown analysis” protocol described by Rosa (2015).

WT human STING isoform = WT human STING isoform (Homo sapiens (Human), UniProt Q86WV6, H232R); experiment: THP-1-Dual KI-hSTING-R232 reporter cell line assay; assay type: cell-based; details: 24 h incubation, luminescence, normalized to ML RR-S2 CDA 40 μM; read-out: EC50 THP-1 Dual KI-hSTING-R232 cells
WT human STING isoform, sequence (Q86WV6 whole entry H232R, canonical isoform): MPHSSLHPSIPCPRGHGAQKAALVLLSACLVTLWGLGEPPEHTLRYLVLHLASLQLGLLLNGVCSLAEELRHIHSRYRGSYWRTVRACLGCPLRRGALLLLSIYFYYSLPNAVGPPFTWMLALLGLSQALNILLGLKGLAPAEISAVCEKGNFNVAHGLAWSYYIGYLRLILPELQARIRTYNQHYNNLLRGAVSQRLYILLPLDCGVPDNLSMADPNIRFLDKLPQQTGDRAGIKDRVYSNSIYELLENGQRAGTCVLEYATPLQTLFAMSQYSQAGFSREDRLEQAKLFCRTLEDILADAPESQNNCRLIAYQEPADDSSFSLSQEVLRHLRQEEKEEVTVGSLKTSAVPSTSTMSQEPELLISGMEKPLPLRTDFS
Procedure: as §1, §2, §3, §4, §5, §6

human STING (HAQ) [3] = biological target: T2, human STING (HAQ) (Homo sapiens (Human), UniProt Q86WV6, G230A/H232R/R293Q); experiment: Differential scanning fluorimetry (DSF), huSTING (HAQ); assay type: binding; details: compound 100 μM, 2 μM protein, Tm with ligand minus Tm of protein alone (1% DMSO)
T2 sequence (Q86WV6 149-345 G230A/H232R/R293Q): as the sequence (Q86WV6 149-345 H232R) above, with G82A, R145Q counted along it
Procedure: as §7

human STING (WT) [4] = biological target: T1, human STING (WT); experiment: Surface Plasmon Resonance (SPR), STING (WT); details: read-out: SPR (WT) KD; biotinylated STING on streptavidin chip, 8° C.
human STING (HAQ) [5] = biological target: T2, human STING (HAQ); experiment: Surface Plasmon Resonance (SPR), STING (HAQ); details: read-out: SPR (HAQ) KD; biotinylated STING on streptavidin chip, 8° C.

human HAQ isoform of STING, sequence (Q86WV6 whole entry R71H/G230A/H232R/R293Q, canonical isoform): as the sequence (Q86WV6 whole entry H232R, canonical isoform) above, with R71H, G230A, R293Q counted along it

Structure (SMILES)	EC50 [1]	DSF huSTING (WT) ΔTm (human STING (WT) [2])	EC50 (WT human STING isoform)	DSF huSTING (HAQ) ΔTm (human STING (HAQ) [3])	Kd (human STING (WT) [4])	Kd (human STING (HAQ) [5])	ΔTm at 100 µM (human STING (HAQ) [3])	ΔTm at 100 µM (human STING (WT) [2])
NC(=O)c1ccc2c(c1)nc(-c1c(C(=O)O)sc3cccc(Br)c13)n2CCn1c(-c2c(C(=O)O)sc3cccc(Br)c23)nc2cc(C(N)=O)ccc21 (single isomer, unassigned) [Example 11.2, 3,3′-(Ethane-1,2-diylbis(5-carbamoyl-1H-benzo[d]imidazole-1,2-diyl))bis(4-bromobenzo[b]thiophene-2-carboxylic acid)]	5480 nM	−5.12 °C	2830 nM	−1.75 °C	1430 nM	–	–	–
NC(=O)c1ccc2c(c1)nc(-c1c(C(=O)O)sc3c(F)ccc(Cl)c13)n2CCn1c(-c2c(C(=O)O)sc3c(F)ccc(Cl)c23)nc2cc(C(N)=O)ccc21 (single isomer, unassigned) [Example 2.1, 3,3′-(Ethane-1,2-diylbis(5-carbamoyl-1H-benzo[d]imidazole-1,2-diyl))bis(4-chloro-7-fluorobenzo[b]thiophene-2-carboxylic acid)]	1830 nM	21 °C	518 nM	–	31 nM	7.4 nM	32 °C	–
NC(=O)c1ccc2c(c1)nc(-c1c(C(=O)O)sc3cccc(Cl)c13)n2CCCn1c(-c2c(C(=O)O)sc3cccc(Cl)c23)nc2cc(C(N)=O)ccc21 (single isomer, unassigned) [Example 4.1, 3,3′-(Propane-1,3-diylbis(5-carbamoyl-1H-benzo[d]imidazole-1,2-diyl))bis(4-chlorobenzo[b]thiophene-2-carboxylic acid)]	> 40000 nM	−0.82 °C	> 40000 nM	2.85 °C	500000 nM	35100 nM	–	–
Cc1cccc2sc(C(=O)O)c(-c3nc4cc(C(N)=O)ccc4n3CCn3c(-c4c(C(=O)O)sc5cccc(C)c45)nc4cc(C(N)=O)ccc43)c12 (single isomer, unassigned) [Example 15.1, 3,3′-(Ethane-1,2-diylbis(5-carbamoyl-1H-benzo[d]imidazole-1,2-diyl))bis(4-methylbenzo[b]thiophene-2-carboxylic acid)]	1540 nM	–	1010 nM	–	430 nM	–	24.6 °C	10.5 °C
NC(=O)c1ccc2c(c1)nc(-c1c(C(=O)O)sc3c(F)ccc(Br)c13)n2CCn1c(-c2c(C(=O)O)sc3c(F)ccc(Br)c23)nc2cc(C(N)=O)ccc21 (single isomer, unassigned) [Example 20.1, 3,3′-(Ethane-1,2-diylbis(5-carbamoyl-1H-benzo[d]imidazole-1,2-diyl))bis(4-bromo-7-fluorobenzo[b]thiophene-2-carboxylic acid)]	1580 nM	22.71 °C	632 nM	31.76 °C	16 nM	1.65 nM	–	–
Cc1cccc2sc(C(=O)O)c(-c3nc4cc(C(N)=O)ccc4n3CCn3c(-c4c(C(=O)O)sc5cccc(C)c45)nc4cc(C(N)=O)ccc43)c12 (single isomer, unassigned) [Example 15.2, 3,3′-(Ethane-1,2-diylbis(5-carbamoyl-1H-benzo[d]imidazole-1,2-diyl))bis(4-methylbenzo[b]thiophene-2-carboxylic acid)]	272 nM	20.41 °C	199 nM	31.87 °C	191 nM	4.98 nM	–	–
NC(=O)c1ccc2c(c1)nc(-c1c(C(=O)O)sc3cccc(Cl)c13)n2CCn1c(-c2c(C(=O)O)sc3cccc(Cl)c23)nc2cc(C(N)=O)ccc21 (single isomer, unassigned) [Example 1.1, 3,3′-(Ethane-1,2-diylbis(5-carbamoyl-1H-benzo[d]imidazole-1,2-diyl))bis(4-chlorobenzo[b]thiophene-2-carboxylic acid)]	681 nM	19.9 °C	271 nM	31.8 °C	119 nM	1.7 nM	–	–
COc1ccc(F)c2sc(C(=O)O)c(-c3nc4cc(C(N)=O)ccc4n3CCn3c(-c4c(C(=O)O)sc5c(F)ccc(OC)c45)nc4cc(C(N)=O)ccc43)c12 (single isomer, unassigned) [Example 13.2, 3,3′-(Ethane-1,2-diylbis(5-carbamoyl-1H-benzo[d]imidazole-1,2-diyl))bis(7-fluoro-4-methoxybenzo[b]thiophene-2-carboxylic acid)]	> 40000 nM	−1.43 °C	> 40000 nM	0.89 °C	2370 nM	–	–	–
COc1ccc(F)c2sc(C(=O)O)c(-c3nc4cc(C(N)=O)ccc4n3CCn3c(-c4c(C(=O)O)sc5c(F)ccc(OC)c45)nc4cc(C(N)=O)ccc43)c12 (single isomer, unassigned) [Example 13.1, 3,3′-(Ethane-1,2-diylbis(5-carbamoyl-1H-benzo[d]imidazole-1,2-diyl))bis(7-fluoro-4-methoxybenzo[b]thiophene-2-carboxylic acid)]	8310 nM	18.17 °C	3750 nM	31.23 °C	300 nM	4 nM	–	–
COc1nccc2sc(C(=O)O)c(-c3nc4cc(C(N)=O)ccc4n3CCn3c(-c4c(C(=O)O)sc5ccnc(OC)c45)nc4cc(C(N)=O)ccc43)c12 [Example 7, 3,3′-(Ethane-1,2-diylbis(5-carbamoyl-1H-benzo[d]imidazole-1,2-diyl))bis(4-methoxythieno[3,2-c]pyridine-2-carboxylic acid)]	> 40000 nM	–	7520 nM	–	80000 nM	28000 nM	6.96 °C	0.6 °C
COc1cccc2sc(C(=O)O)c(-c3nc4cc(C(N)=O)ccc4n3CCn3c(-c4c(C(=O)O)sc5cccc(OC)c45)nc4cc(C(N)=O)ccc43)c12 (single isomer, unassigned) [Example 5.2, 3,3′-(Ethane-1,2-diylbis(5-carbamoyl-1H-benzo[d]imidazole-1,2-diyl))bis(4-methoxybenzo[b]thiophene-2-carboxylic acid)]	1660 nM	19.17 °C	489 nM	–	122 nM	1.4 nM	30.9 °C	–
NC(=O)c1ccc2c(c1)nc(-c1c(C(=O)O)sc3c(F)ccc(Cl)c13)n2CCn1c(-c2c(C(=O)O)sc3c(F)ccc(Cl)c23)nc2cc(C(N)=O)ccc21 (single isomer, unassigned) [Example 2.2, 3,3′-(Ethane-1,2-diylbis(5-carbamoyl-1H-benzo[d]imidazole-1,2-diyl))bis(4-chloro-7-fluorobenzo[b]thiophene-2-carboxylic acid)]	8320 nM	8.85 °C	4300 nM	22.2 °C	–	124 nM	–	–
N#Cc1cccc2sc(C(=O)O)c(-c3nc4cc(C(N)=O)ccc4n3CCn3c(-c4c(C(=O)O)sc5cccc(C#N)c45)nc4cc(C(N)=O)ccc43)c12 [Example 17, 3,3′-(Ethane-1,2-diylbis(5-carbamoyl-1H-benzo[d]imidazole-1,2-diyl))bis(4-cyanobenzo[b]thiophene-2-carboxylic acid)]	14900 nM	–	9400 nM	–	–	38000 nM	3.27 °C	-2.58 °C
NC(=O)c1ccc2c(c1)nc(-c1c(C(=O)O)sc3ccccc13)n2CCn1c(-c2c(C(=O)O)sc3ccccc23)nc2cc(C(N)=O)ccc21 [Example 9, 3,3′-(Ethane-1,2-diylbis(5-carbamoyl-1H-benzo[d]imidazole-1,2-diyl))bis(benzo[b]thiophene-2-carboxylic acid)]	> 40000 nM	–	3650 nM	–	–	10100 nM	6.7 °C	2.36 °C

Reference: US12384801B2, “Benzothiophene, thienopyridine and thienopyrimidine derivatives for the modulation of sting” (CTXT PTY LTD, priority 2019, dated 2025)
